Data taken from US6296785A, “Indeno-fused photochromic naphthopyrans” (PPG Industries Ohio, Inc., priority 2000, dated 2001).

Assays:
Assay type in all cases: physicochemical
[1] = lambda max (Vis) of activated photochromic test squares in a Varian Cary 3 uv-visible spectrophotometer; settings: activated form in test square
Description: (§1) Testing was done with the photochromic compounds described in Examples 1 through 20 and Comparative Examples 1 through 3 in the following manner. A quantity of photochromic compound calculated to yield a 1.5×10^-3 molal solution was added to a flask containing 50 grams of a monomer blend of 4 parts ethoxylated bisphenol A dimethacrylate (BPA 2EO DMA), 1 part poly(ethylene glycol) 600 dimethacrylate, and 0.033 weight percent 2,2'-azobis(2-methyl propionitrile) (AIBN). The photochromic compound was dissolved into the monomer blend by stirring and gentle heating, if necessary. After a clear solution was obtained, it was poured into a flat sheet mold having the interior dimensions of 2.2 mm×6 inches (15.24 cm)×6 inches (15.24 cm). The mold was sealed and placed in a horizontal air flow, programmable oven programmed to increase the temperature from 40° C. to 95° C. over a 5 hour interval, hold the temperature at 95° C. for 3 hours, lower it to 60° C. over a 2 hour interval and then hold it at 60° C. for 16 hours. After the mold was opened, the polymer sheet was cut using a diamond blade saw into 2 inch (5.1 centimeters) test squares.
The lambda max (Vis) is the wavelength in the visible spectrum at which the maximum absorption of the activated (colored) form of the photochromic compound in a test square occurs. The lambda max (Vis) wavelengths reported in Table 1 were determined by testing the photochromic test square polymerizates of Part A in a Varian Cary 3 uv-visible spectrophotometer. The bleach rate (T 1/2) is the time interval in seconds for the absorbance of the activated form of the photochromic compound in the test squares to read one half the highest absorbance at room temperature (72° F., 22.2° C.) after removal of the source of activating light.
For each lambda max visible, the corresponding optical density (Δ OD/Min and Δ OD at saturation) for the desired compounds of the Examples and Comparative Examples are tabulated in Table 1 for the two bands (A and B) of peak absorption for each compound. Table 1 also includes the bleach rate (T 1/2) for each of the compounds as measured at band B. The ratings of the Relative Δ OD at Saturation Test for the bands A and B of each of the Examples and Comparative Examples are calculated as follows: Δ OD at saturation (Band A)/Δ OD at saturation (Band B)×100.

[2] = photochromic response of test squares on an optical bench (sensitivity, saturation optical density, bleach rate); settings: for ΔOD @ Saturation (Band A) / ΔOD @ Saturation (Band B): UV exposure 15 minutes; for ΔOD @ Saturation (Band A) / Sensitivity ΔOD/MIN (Band A) / ΔOD @ Saturation (Band B) / Sensitivity ΔOD/MIN (Band B): 72° F. (22.2° C.), polymer test square; for Sensitivity ΔOD/MIN (Band A) / Sensitivity ΔOD/MIN (Band B): first five (5) seconds of UV exposure, expressed per minute; for Bleach Rate T 1/2: measured at band B, room temperature (72° F., 22.2° C.) after removal of activating light
Description: as §1
(§2) The photochromic test squares of Part A were tested for photochromic response rates on an optical bench. Prior to testing on the optical bench, the photochromic test squares were exposed to 365 nanometer ultraviolet light for about 15 minutes to activate the photochromic compounds and then placed into a 76° C. oven for about 15 minutes to bleach the photochromic compounds. The test squares were then cooled to room temperature, exposed to fluorescent room lighting for at least 2 hours and then kept covered for at least 2 hours prior to testing on an optical bench maintained at 72° F. (22.2° C.). The bench was fitted with a 250 watt Xenon arc lamp, a remote controlled shutter, a copper sulfate bath acting as a heat sink for the arc lamp, a Schott WG-320 nm cut-off filter which removes short wavelength radiation; neutral density filter(s) and a sample holder in which the square to be tested was inserted. The power output of the optical bench, i.e., the dosage of light that the sample lens would be exposed to, was calibrated with a photochromic test square used as a reference standard. […] The UV-A detector was placed into the sample holder and the light output was measured. Adjustments to the power output were made by increasing or decreasing the lamp wattage or by adding or removing neutral density filters in the light path.
A monitoring, collimated beam of light from a tungsten lamp was passed through the square at a small angle (approximately 30°) normal to the square. After passing through the square, the light from the tungsten lamp was directed to a detector through Spectral Energy Corp. GM-200 monochromator set at the previously determined visible lambda max of the photochromic compound being measured. The output signals from the detector were processed by a radiometer.
(§3) Change in optical density (ΔOD) was determined by inserting a test square in the bleached state into the sample holder, adjusting the transmittance scale to 100%, opening the shutter from the Xenon lamp to provide ultraviolet radiation to change the test square from the bleached state to an activated (i.e., darkened) state, measuring the transmittance in the activated state, and calculating the change in optical density according to the formula: ΔOD=log(100/% Ta), where % Ta is the percent transmittance in the activated state and the logarithm is to the base 10.
The ΔOD/Min, which represents the sensitivity of the photochromic compound's response to UV light, was measured over the first five (5) seconds of UV exposure, then expressed on a per minute basis. The saturation optical density (ΔOD@ Saturation) was taken under identical conditions as the ΔOD/Min, except UV exposure was continued for 15 minutes. […]

[3] = Relative ΔOD at Saturation Test; settings: ΔOD at saturation (Band A)/ΔOD at saturation (Band B)×100
Text: In accordance with the present invention, it has now been discovered that certain novel indeno[2,1-f]naphtho[1,2-b]pyrans having two absorption bands in the activated (colored) state, an acceptable fade rate, high activated intensity, a high coloration rate and a rating of 80 or higher in the Relative ΔOD at Saturation Test may be prepared. The Relative ΔOD at Saturation Test is described in Example 21. The ratings of the test are defined herein as the result obtained when the optical density of band "A" is divided by the optical density of band "B" and multiplied by 100. It is believed that compounds having a rating of 80 or higher are most valuable for formulating neutral grays, greens and browns for commercial photochromic ophthalmic eyeware.
as §1, §2
as §3, with “10. […]” for “10.”

Compound | λ MAX Vis (Band A) [1] | λ MAX Vis (Band B) [1] | ΔOD @ Saturation (Band A) [2] | Sensitivity ΔOD/MIN (Band A) [2] | ΔOD @ Saturation (Band B) [2] | Sensitivity ΔOD/MIN (Band B) [2] | Bleach Rate T 1/2 [2] | Relative ΔOD at Saturation (rating) [3]
CCC1(CC)c2cc(OC)c(OC)cc2-c2c1c1c(c3cc(OC)c(OC)cc23)OC(c2ccc(OC)cc2)(c2ccc(OC)cc2)C=C1 [Example 6, 3,3-di(4-methoxyphenyl)-6,7,10,11-tetramethoxy-13,13-diethyl-3H,13H-indeno[2,1-f]naphtho[1,2-b]pyran] | 440 nm | 608 nm | 1.02 | 0.46 ΔOD/MIN | 0.73 | 0.37 ΔOD/MIN | 5.17 min | 140
CCCCC1(O)c2ccccc2-c2c1c1c(c3cc(OC)c(OC)cc23)OC(c2ccccc2)(c2ccc(N3CCOCC3)cc2)C=C1 (stereo not drawn) [Example 16, 3-(4-morpholinophenyl)-3-phenyl-6,7-dimethoxy-13-hydroxy-13-butyl-3H,13H-indeno[2,1,-f]naphtho[1,2-b]pyran] | 485 nm | 600 nm | 0.37 | 0.22 ΔOD/MIN | 0.35 | 0.19 ΔOD/MIN | 1.88 min | 106
COc1ccc(C2(c3ccc(OC)cc3)C=Cc3c4c(c5c(OC)c(OC)c(OC)cc5c3O2)-c2ccccc2C4c2ccccc2)cc1 (stereo not drawn) [Example 11, 3,3-di(4-methoxyphenyl)-6,7,8-trimethoxy-13-phenyl-3H,13H-indeno[2,1-f]naphtho[1,2-b]pyran] | 482 nm | 581 nm | 0.66 | 0.28 ΔOD/MIN | 0.62 | 0.25 ΔOD/MIN | 3.05 min | 106
CCC1(O)c2ccccc2-c2c1c1c(c3ccccc23)OC(c2ccc(OC)cc2)(c2ccc(OC)cc2)C=C1 (stereo not drawn) [Comp. Ex. 1, 3,3-di(4-methoxyphenyl)-13-hydroxy-13-ethyl-3H-13H-indeno[2,1-f]naphtho[1,2-b]pyran, reference compound] | 437 nm | 562 nm | 0.16 | 0.21 ΔOD/MIN | 0.27 | 0.29 ΔOD/MIN | 0.783 min | 59
CCCCC1(O)c2cc(OC)c(OC)cc2-c2c1c1c(c3cc(OC)c(OC)cc23)OC(c2ccc(OC)cc2)(c2ccc(N3CCOCC3)cc2)C=C1 (stereo not drawn) [Example 13, 3-(4-methoxyphenyl)-3-(4-morpholinophenyl)-6,7,10,11-tetramethoxy-13-hydroxy-13-butyl-3H,13H-indeno[2,1-f]naphtho[1,2-b]pyran] | 482 nm | 634 nm | 0.39 | 0.27 ΔOD/MIN | 0.37 | 0.25 ΔOD/MIN | 1.42 min | 105
COc1ccc(C2(c3ccc(N4CCOCC4)cc3)C=Cc3c4c(c5cc(OC)c(OC)cc5c3O2)-c2ccccc2C4(C)C)cc1 (stereo not drawn) [Example 9, 3-(4-methoxyphenyl)-3-(4-morpholinophenyl)-6,7-dimethoxy-13,13-dimethyl-3H,13H-indeno[2,1-f]naphtho[1,2-b]pyran] | 477 nm | 597 nm | 0.60 | 0.18 ΔOD/MIN | 0.59 | 0.23 ΔOD/MIN | 3.4 min | 102
COc1ccc(C2(c3ccc(N4CCOCC4)cc3)C=Cc3c4c(c5cc(OC)c(OC)cc5c3O2)-c2ccccc2C4(C)OC)cc1 (stereo not drawn) [Example 20, 3-(4-methoxyphenyl)-3-(4-morpholinophenyl)-6,7-dimethoxy-13-methoxy-13-methyl-3H,13H-indeno[2,1-f]naphtho[1,2-b]pyran] | 483 nm | 604 nm | 0.34 | 0.16 ΔOD/MIN | 0.37 | 0.17 ΔOD/MIN | 1.75 min | 92
CCC1(O)c2ccccc2-c2c1c1c(c3cc(OC)c(OC)cc23)OC(c2ccccc2)(c2ccc(N3CCOCC3)cc2)C=C1 (stereo not drawn) [Example 14, 3-(4-morpholinophenyl)-3-phenyl-6,7-dimethoxy-13-hydroxy-13-ethyl-3H,13H-indeno[2,1,-f]naphtho[1,2-b]pyran] | 485 nm | 600 nm | 0.41 | 0.24 ΔOD/MIN | 0.40 | 0.22 ΔOD/MIN | 1.8 min | 103
CCC1(O)c2cc(OC)ccc2-c2c1c1c(c3cc(OC)ccc23)OC(c2ccc(OC)cc2)(c2ccc(OC)cc2)C=C1 (stereo not drawn) [Comp. Ex. 2, 3,3-di(4-methoxyphenyl)-6,11-dimethoxy-13-hydroxy-13-ethyl-3H-13H-indeno[2,1-f]naphtho[1,2-b]pyran, reference compound] | 499 nm | 607 nm | 0.36 | 0.22 ΔOD/MIN | 0.51 | 0.32 ΔOD/MIN | 2.17 min | 70
